Data on four compounds can be found in patent publication EP0347733A1, “Optically active hydantoin derivatives” (Eisai Co., Ltd., priority 1988, dated 1989).

The subject of data set [1] is aconitine-induced arrhythmia. The experiment in a line: aconitine-induced arrhythmia model of mice. It counts as in vivo. The following applies: orally administered one hour before intraperitoneal injection of 0.1 mg/kg of aconitine, tachycardia and frequency of ventricular extrasystole from the electrocardiogram, 60 min. Here is the method:
The antiarrythmic activity of the compound of the present invention was examined with aconitine-induced arrhythmia model of mice. When 0.1 mg/kg of aconitine is intraperitoneally injected, usually ventricular tachycardia occurs within 20 minutes. The compound of the present invention (d- or ℓ-compound) was orally administered one hour before the intraperitoneal injection of 0.1 mg/kg of aconitine and the tachycardia and the frequency of ventricular extrasystole were determined from the electrocardiogram to determine the antiarrhythmic activity (ED₅₀). The ED₅₀ of the d-compound was 40 mg/kg and that of the ℓ-compound was 5 mg/kg.

The subject of data set [2] is mice. The experiment in a line: acute toxicity tests with mice. It counts as in vivo. Here is the method: In the acute toxicity tests with mice, LD₅₀ of the d-compound was 700 mg/kg and that of the ℓ-compound was 200 mg/kg.
Data set [3] has as its system myocardial contraction. Put plainly: influence on myocardial contraction. The following applies: amount several times as much as the antiarrhythmically effective amount. The source says:
One of the pharmacological features of the compounds of the present invention is that they inhibit myocardial contraction only very slightly. This is a quite desirable property when they are used as the antiarrhythmic agents.

In the case of `CC1(C)CC2(NC(=O)N(CCCN3CCC(O)CC3)C2=O)c2cc(Cl)ccc2O1` (single isomer, unassigned) [ℓ-compound, ℓ-6-Chloro-2,2-dimethyl-1′-[3-(4-hydroxypiperidino)propyl]spiro[chroman-4,4′-imidazolidine]-2′,5′-dione], in data set [1], the “antiarrhythmic activity (ED₅₀)” value came out at 5 mg/kg. This compound displayed an LD₅₀ in data set [2] of 200 mg/kg.
`CC1(C)CC2(NC(=O)N(CCCN3CCC(O)CC3)C2=O)c2cc(Cl)ccc2O1` (single isomer, unassigned) [d-compound, d-6-Chloro-2,2-dimethyl-1′-[3-(4-hydroxypiperidino)propyl]spiro[chroman-4,4′-imidazolidine]-2′,5′-dione]: the “antiarrhythmic activity (ED₅₀)” value in data set [1] amounted to 40 mg/kg. In data set [2], the LD₅₀ is reported as 700 mg/kg.
For `CC(C)N(CCC(C(N)=O)(c1ccccc1)c1ccccn1)C(C)C` (stereo not drawn) [disopyramide], the “influence on the myocardial contraction” value in data set [3] is “reduce myocardial contraction”.
As to `C=C[C@H]1C[N@@]2CC[C@H]1C[C@@H]2[C@@H](O)c1ccnc2ccc(OC)cc12` [quinidine], the “influence on the myocardial contraction” value in data set [3] is “reduce myocardial contraction”.
